Values of other authors as cited in patent publication US10590381B2, “Composition for collecting and preserving placental stem cells and methods of using the composition” (Celularity, Inc., priority 2005, dated 2020).

Tests used:
[1] = Form E: about 125° C. for about five minutes; Form B: 175° C. for about five minutes
[2] = for hygroscopicity: solid polymorphic form; for conversion at higher relative humidities: stressed at higher relative humidities
[3] = Form A: among anhydrous polymorphs; Form E: in aqueous solvent systems

SMILES	conversion upon heating [1]	hygroscopicity [2]	conversion at higher relative humidities [2]	relative stability among polymorphs [3]
Nc1cccc2c1CN(C1CCC(=O)NC1=O)C2=O (centres unmarked) [Form E, 3-(4-amino-1-oxo-1,3 dihydro-isoindol-2-yl)-piperidene-2,6-dione]	can convert to Form B			
Nc1cccc2c1CN(C1CCC(=O)NC1=O)C2=O (centres unmarked) [Form D, 3-(4-amino-1-oxo-1,3 dihydro-isoindol-2-yl)-piperidene-2,6-dione]		either weakly or not hygroscopic	will typically convert to Form B	
Nc1cccc2c1CN(C1CCC(=O)NC1=O)C2=O (centres unmarked) [Form B, 3-(4-amino-1-oxo-1,3 dihydro-isoindol-2-yl)-piperidene-2,6-dione]	can convert to Form F			
Nc1cccc2c1CN(C1CCC(=O)NC1=O)C2=O (centres unmarked) [Form A, 3-(4-amino-1-oxo-1,3 dihydro-isoindol-2-yl)-piperidene-2,6-dione]		weakly or not hygroscopic		most thermodynamically stable anhydrous polymorph
Nc1cccc2c1CN(C1CCC(=O)NC1=O)C2=O (centres unmarked) [Form C, 3-(4-amino-1-oxo-1,3 dihydro-isoindol-2-yl)-piperidene-2,6-dione]		not hygroscopic below about 85% RH	can convert to Form B at higher relative humidities	
